Target: T1, KGA_H519Q (Homo sapiens, UniProt O94925, H519Q)
T1 construct: a KGA cDNA fragment of 1644 bp (residues Leu123-Leu669); His-tag (N); made in house; host or cells: Escherichia coli
T1 sequence (O94925 123-669 H519Q): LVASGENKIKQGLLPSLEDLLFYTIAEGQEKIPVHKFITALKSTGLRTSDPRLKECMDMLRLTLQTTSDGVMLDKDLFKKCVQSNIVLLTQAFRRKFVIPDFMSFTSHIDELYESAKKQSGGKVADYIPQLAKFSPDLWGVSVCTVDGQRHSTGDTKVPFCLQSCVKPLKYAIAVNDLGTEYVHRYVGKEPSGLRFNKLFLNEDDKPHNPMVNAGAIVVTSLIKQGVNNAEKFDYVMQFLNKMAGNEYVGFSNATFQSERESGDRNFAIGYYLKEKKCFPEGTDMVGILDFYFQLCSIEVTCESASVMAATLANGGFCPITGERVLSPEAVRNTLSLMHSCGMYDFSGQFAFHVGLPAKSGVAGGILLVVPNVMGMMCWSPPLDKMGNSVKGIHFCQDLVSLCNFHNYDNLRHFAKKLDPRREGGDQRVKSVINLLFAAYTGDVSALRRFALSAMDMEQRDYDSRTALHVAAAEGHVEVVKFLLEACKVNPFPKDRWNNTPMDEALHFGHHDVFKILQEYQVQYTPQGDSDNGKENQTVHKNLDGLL
Test: Glutaminase activity assay, KGA mutant H519Q
Assay type: biochemical
Protocol: Human glutaminase activity was measured using a two-step assay as described previously. A microtiter assay format was used to facilitate the collection of multiple data points. Typically, 10 μl of compound, which was dissolved in DMSO, was added to 80 μl of an initial assay mix (0.1 mM hKGA, 0.2 mM EDTA and 50 mM Tris/acetate, pH 8.6). Samples were incubated at 25°C for 10 min and then 10 μl of 200 mM glutamine were added to the reaction mix. After adding glutamine, the reactions were incubated at 37°C for 60 min and then quenched by the addition of 10 μl of 0.6 M HCl. Subsequently, 100 μl of a second reaction mixture (3.7 units of purified bovine liver glutamate dehydrogenase, 160 mM Tris/acetate [pH 9.4], 400 mM hydrazine, 5 mM ADP and 2 mM NAD^+) was added to the stopped first reaction mixture and incubated for 30 min at 25°C. The absorbance at 340 nm was measured using a Wallac Victor2V plate reader (PerkinElmer), fitted with a 340 nm excitation filter. Sample absorbance was measured against a blank, containing no human glutaminase.
Site-directed mutagenesis was performed on the pET28a(+)-GAB or pET28a(+)-KGA plasmids using PfuUltra II Fusion HS DNA polymerase (Agilent Technologies) to create the GAB and KGA mutants. […] The sequence alignment was compared with crystal structure of the GAC (PDB code: 3UO9) and the resulting model of GAB was analyzed using the Swiss-PDB server. […]

CCCCCCCCCCCCCC(CC1=CC(=O)C=C(OC)C1=O)OC(C)=O (stereo not shown) [AV-1]
IC50: 1670 ± 120 nM
